Reference: ChEMBL document CHEMBL4422610, “HDAC as onco target: Reviewing the synthetic approaches with SAR study of their inhibitors” (Eur J Med Chem, 2018)
One block for each molecule: values may come before it.

Key:
Histone deacetylase 1 [1] = target: T1, Histone deacetylase 1 (Homo sapiens, UniProt Q13547); assay: Inhibition of recombinant human His-tagged HDAC1 (482 residues) expressed in baculovirus infected insect cells using Boc Lys(Ac)-AMC as substrate preincubated for 5 mins followed by substrate addition and measured after 30 mins by fluorescence assay
T1 sequence (Q13547 whole entry): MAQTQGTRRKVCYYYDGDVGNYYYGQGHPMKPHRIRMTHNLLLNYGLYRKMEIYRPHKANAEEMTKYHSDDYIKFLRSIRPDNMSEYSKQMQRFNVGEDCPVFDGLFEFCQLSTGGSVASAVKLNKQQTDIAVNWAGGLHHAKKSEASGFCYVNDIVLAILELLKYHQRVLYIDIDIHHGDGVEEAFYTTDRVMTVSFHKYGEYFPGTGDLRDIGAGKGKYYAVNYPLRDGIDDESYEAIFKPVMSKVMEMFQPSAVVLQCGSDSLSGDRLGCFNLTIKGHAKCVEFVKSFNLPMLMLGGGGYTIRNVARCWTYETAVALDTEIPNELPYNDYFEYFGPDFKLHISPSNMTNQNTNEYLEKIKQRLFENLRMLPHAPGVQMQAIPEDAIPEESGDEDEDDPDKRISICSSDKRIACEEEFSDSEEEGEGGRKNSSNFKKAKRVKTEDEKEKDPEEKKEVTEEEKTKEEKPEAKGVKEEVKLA

[2] = target: T2, Protein deacetylase HDAC6 (Homo sapiens, UniProt Q9UBN7); assay: Inhibition of recombinant human His-tagged HDAC6 expressed in baculovirus infected insect cells using Boc Lys(Ac)-AMC as substrate preincubated for 5 mins followed by substrate addition and measured after 30 mins by fluorescence assay
T2 sequence (Q9UBN7 whole entry): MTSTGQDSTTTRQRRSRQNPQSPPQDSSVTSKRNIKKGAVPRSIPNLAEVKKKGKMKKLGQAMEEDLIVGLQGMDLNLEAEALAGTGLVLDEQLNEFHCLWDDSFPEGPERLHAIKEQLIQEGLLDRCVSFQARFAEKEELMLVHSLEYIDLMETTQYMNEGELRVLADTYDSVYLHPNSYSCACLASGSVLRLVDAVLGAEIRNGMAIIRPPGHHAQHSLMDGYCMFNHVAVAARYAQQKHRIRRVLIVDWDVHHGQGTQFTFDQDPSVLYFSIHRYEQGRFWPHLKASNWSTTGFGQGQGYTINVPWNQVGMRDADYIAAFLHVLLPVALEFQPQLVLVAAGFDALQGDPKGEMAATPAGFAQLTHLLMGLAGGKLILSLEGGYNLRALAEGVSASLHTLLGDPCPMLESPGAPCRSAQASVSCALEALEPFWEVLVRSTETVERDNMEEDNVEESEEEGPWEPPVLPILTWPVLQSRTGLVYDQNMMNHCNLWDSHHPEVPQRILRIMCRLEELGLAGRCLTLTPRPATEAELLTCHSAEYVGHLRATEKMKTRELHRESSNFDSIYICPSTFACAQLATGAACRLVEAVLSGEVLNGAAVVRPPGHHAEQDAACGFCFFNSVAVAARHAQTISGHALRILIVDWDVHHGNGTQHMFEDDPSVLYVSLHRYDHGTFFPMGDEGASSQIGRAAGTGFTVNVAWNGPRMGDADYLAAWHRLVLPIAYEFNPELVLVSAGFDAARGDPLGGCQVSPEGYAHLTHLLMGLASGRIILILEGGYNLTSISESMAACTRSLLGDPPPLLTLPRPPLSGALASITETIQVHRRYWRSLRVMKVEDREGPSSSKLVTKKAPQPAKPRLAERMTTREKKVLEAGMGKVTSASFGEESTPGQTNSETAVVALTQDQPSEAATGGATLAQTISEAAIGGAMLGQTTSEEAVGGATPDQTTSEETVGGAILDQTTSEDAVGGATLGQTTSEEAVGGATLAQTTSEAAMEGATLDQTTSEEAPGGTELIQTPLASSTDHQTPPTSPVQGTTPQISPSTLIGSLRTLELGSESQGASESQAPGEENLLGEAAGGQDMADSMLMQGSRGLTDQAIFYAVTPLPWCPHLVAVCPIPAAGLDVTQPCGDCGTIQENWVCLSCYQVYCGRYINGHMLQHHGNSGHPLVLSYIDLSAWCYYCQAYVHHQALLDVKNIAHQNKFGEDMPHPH

[3] = target: T2, Protein deacetylase HDAC6; assay: Inhibition of HDAC6 (unknown origin)
Histone deacetylase 1 [4] = target: T1, Histone deacetylase 1; assay: Inhibition of HDAC1 (unknown origin)
Histone deacetylase 4 [5] = target: T3, Histone deacetylase 4 (Homo sapiens, UniProt P56524); assay: Inhibition of HDAC4 (unknown origin)
T3 sequence (P56524 whole entry): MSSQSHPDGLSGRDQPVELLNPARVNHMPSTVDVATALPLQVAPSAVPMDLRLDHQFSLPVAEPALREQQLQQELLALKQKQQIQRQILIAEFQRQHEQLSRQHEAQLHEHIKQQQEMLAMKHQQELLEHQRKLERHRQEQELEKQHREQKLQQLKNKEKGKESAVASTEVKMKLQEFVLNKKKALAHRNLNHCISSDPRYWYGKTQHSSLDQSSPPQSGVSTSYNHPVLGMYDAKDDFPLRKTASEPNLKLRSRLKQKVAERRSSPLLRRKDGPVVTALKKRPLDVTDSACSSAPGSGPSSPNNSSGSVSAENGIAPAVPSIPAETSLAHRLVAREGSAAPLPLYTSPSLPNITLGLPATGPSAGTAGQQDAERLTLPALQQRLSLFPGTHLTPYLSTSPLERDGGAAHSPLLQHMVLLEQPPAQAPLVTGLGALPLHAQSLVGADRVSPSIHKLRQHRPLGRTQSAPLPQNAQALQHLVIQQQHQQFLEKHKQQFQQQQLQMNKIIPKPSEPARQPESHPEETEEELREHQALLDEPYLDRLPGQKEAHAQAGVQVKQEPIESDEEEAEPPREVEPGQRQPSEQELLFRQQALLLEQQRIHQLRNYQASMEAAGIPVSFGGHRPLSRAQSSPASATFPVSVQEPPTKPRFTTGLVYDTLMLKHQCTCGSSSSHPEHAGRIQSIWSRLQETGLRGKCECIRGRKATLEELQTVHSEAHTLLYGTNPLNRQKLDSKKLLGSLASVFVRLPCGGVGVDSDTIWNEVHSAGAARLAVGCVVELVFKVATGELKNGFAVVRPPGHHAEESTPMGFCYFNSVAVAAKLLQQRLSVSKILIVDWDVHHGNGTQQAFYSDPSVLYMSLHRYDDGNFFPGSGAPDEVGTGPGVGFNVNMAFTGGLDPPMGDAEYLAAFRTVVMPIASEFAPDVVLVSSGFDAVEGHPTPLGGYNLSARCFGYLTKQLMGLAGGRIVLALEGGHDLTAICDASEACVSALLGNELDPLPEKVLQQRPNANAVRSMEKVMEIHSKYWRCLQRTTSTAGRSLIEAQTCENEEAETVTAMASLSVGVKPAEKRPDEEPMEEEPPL

Histone deacetylase 1 [6] = target: T1, Histone deacetylase 1; assay: Inhibition of recombinant human GST-tagged HDAC1 expressed in baculovirus infected Sf9 insect cells Fluor-de-lys as substrate measured after 2 hrs by fluorescence assay
[7] = target: Histone deacetylase (Homo sapiens) (UniProt Q13547+O15379+Q9UBN7+Q92769+Q9UQL6+Q8WUI4+Q9BY41+Q96DB2+P56524+Q9UKV0+Q969S8); assay: Inhibition of HDAC in human K562 cells assessed as increase in histone acetylation levels at 500 nM after 3 hrs by FACS analysis relative to SAHA; assay type: cell-based
HCT-116 = assay: cells; assay type: functional, cell-based; details: Homo sapiens, HCT-116, 72 h
A549 = assay: cells; assay type: functional, cell-based; details: Homo sapiens, A549, 72 h
K562 = assay: cells; assay type: functional, cell-based; details: Homo sapiens, K562, 72 h
Histone deacetylase = assay type: cell-based, Homo sapiens; details: hela
[8] = target: Histone deacetylase (HDAC1 and HDAC2) (Homo sapiens, UniProt Q13547+Q92769); assay type: cell-based; details: hela
Histone deacetylase 3 = Histone deacetylase 3 (Homo sapiens, UniProt O15379); assay: Inhibition of HDAC3 (unknown origin)
Chain of Histone deacetylase 3 (O15379 whole entry): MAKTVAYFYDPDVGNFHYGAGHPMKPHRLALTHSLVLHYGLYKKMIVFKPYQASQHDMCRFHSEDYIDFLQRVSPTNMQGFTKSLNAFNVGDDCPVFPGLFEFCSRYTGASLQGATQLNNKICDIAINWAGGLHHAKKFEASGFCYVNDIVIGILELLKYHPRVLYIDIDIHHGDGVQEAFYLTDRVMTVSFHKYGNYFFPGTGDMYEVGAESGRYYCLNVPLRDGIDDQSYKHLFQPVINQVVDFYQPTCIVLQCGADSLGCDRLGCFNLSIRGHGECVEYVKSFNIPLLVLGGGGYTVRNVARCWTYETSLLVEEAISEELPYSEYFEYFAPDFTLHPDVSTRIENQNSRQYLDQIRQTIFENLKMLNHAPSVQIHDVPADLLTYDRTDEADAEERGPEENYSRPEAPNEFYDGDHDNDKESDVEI

[9] = target: T4, Protein deacetylase HDAC6 (Mus musculus, UniProt Q9Z2V5); assay: Inhibition of recombinant mouse HDAC6 expressed in HEK293T cells using Ac-KGLGK(Ac)-MCA as substrate measured after 30 mins by fluorescence assay
T4 sequence (Q9Z2V5 whole entry): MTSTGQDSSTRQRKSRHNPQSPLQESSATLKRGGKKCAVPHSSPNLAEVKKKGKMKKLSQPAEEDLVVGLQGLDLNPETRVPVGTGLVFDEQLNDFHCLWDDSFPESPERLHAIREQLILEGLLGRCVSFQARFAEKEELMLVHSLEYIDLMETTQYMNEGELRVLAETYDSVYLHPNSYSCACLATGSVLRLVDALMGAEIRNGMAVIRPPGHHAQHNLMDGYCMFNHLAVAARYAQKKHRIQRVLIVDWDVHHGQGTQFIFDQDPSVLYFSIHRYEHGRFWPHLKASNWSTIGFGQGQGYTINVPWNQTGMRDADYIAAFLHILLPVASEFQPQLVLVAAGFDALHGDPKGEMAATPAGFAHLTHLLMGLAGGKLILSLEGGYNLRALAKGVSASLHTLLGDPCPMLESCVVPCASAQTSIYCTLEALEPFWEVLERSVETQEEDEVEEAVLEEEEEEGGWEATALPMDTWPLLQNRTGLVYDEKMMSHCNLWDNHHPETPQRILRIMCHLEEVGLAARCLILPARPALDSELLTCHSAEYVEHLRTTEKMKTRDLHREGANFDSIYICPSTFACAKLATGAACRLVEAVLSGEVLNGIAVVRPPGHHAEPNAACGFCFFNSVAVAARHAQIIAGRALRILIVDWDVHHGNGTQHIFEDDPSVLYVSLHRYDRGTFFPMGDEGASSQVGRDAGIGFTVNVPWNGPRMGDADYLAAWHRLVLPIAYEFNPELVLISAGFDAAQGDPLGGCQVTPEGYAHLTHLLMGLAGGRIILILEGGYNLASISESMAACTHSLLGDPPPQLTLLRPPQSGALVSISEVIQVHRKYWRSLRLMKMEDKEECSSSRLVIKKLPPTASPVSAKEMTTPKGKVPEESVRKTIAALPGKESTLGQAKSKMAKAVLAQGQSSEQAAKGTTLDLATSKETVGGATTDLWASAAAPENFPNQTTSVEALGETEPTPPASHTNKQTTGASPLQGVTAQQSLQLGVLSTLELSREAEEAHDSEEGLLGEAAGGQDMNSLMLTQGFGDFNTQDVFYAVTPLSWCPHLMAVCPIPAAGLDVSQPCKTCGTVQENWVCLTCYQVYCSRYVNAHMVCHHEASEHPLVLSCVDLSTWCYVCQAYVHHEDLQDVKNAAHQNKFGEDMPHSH

Histone deacetylase 1 [10] = target: T1, Histone deacetylase 1; assay: Inhibition of recombinant human HDAC1 expressed in HEK293T cells using Ac-KGLGK(Ac)-MCA as substrate measured after 30 mins by fluorescence assay
Histone deacetylase 4 [11] = target: T3, Histone deacetylase 4; assay: Inhibition of recombinant human HDAC4 expressed in HEK293T cells using Ac-KGLGK(Ac)-MCA as substrate measured after 30 mins by fluorescence assay

SMILES: CC(C)CCc1c(OCCOc2ccc(/C=C/C(=O)NO)cc2)ccc2c1OC(=O)CC2
- IC50 (Histone deacetylase 1 [1]): 83.2 nM
- IC50 [2]: 55.6 nM

SMILES: COCCOCC(=O)SCCCCCC(NC(=O)OCc1ccccc1)C(=O)Nc1cccc2cccnc12 (stereo not drawn)
- IC50 [3]: 29 nM
- IC50 (Histone deacetylase 1 [4]): 19 nM
- IC50 (Histone deacetylase 4 [5]): 18 nM

SMILES: CC(=O)SCCCCCC(NC(=O)OCc1ccccc1)C(=O)Nc1cccc2cccnc12 (stereo not drawn)
- IC50 [3]: 34 nM
- IC50 (Histone deacetylase 1 [4]): 47 nM
- IC50 (Histone deacetylase 4 [5]): 18 nM

SMILES: CCCCc1nc2cc(/C=C/C(=O)NO)ccn2c1CN(CC)CCCC
- IC50 (Histone deacetylase 1 [6]): 60 nM

SMILES: O=C(CCCCCCn1cc(-c2ccccc2)nn1)NO
- histone acetylation relative to SAHA [7]: 108%
- IC50 (HCT-116): 1390 nM
- IC50 (A549): 1.98 µM
- IC50 (K562): 1210 nM

SMILES: CCCCNCc1c(CCCC)nc2cc(/C=C/C(=O)NO)ccn12
- IC50 (Histone deacetylase 1 [6]): 20 nM

SMILES: CC(C)CCc1c(OCCCCOc2ccc(/C=C/C(=O)NO)cc2)ccc2c1OC(=O)CC2
- IC50 (Histone deacetylase 1 [1]): 204 nM
- IC50 [2]: 82.6 nM

SMILES: COc1ccc2c(c1)[nH]c1c(C)nccc12 [HARMINE]
- IC50 (Histone deacetylase): > 10 µM

SMILES: O=C(CCCCCCn1cc(-c2ccc(Oc3ccccc3)cc2)nn1)NO
- histone acetylation relative to SAHA [7]: 53%
- IC50 (HCT-116): 3550 nM
- IC50 (A549): 4.34 µM
- IC50 (K562): 3300 nM

SMILES: COc1cc(/C=C/C(=O)NO)ccc1OCCN(C)C(=O)c1ccccc1O
- IC50 [8]: 0.24 µmol/L
- IC50 (Histone deacetylase 3): 380 nM
- IC50 [3]: 430 nM

SMILES: COc1ccc(-c2cn(CCCCCCC(=O)NO)nn2)cc1
- histone acetylation relative to SAHA [7]: 85%
- IC50 (HCT-116): 1780 nM
- IC50 (A549): 2.84 µM
- IC50 (K562): 1530 nM

SMILES: CCC(CC)CN(CC)Cc1c(C)nc2cc(/C=C/C(=O)NO)ccn12
- IC50 (Histone deacetylase 1 [6]): 10 nM

SMILES: O=C(NC(CCCCCSSCCO)C(=O)Nc1cccc2cccnc12)OCc1ccccc1 (stereo not drawn)
- IC50 [3]: 3.2 nM
- IC50 (Histone deacetylase 1 [4]): 4.9 nM
- IC50 (Histone deacetylase 4 [5]): 2 nM

SMILES: O=C1N[C@@H]2CCCCCCCCCCC[C@H](NC2=O)C(=O)N2CCC[C@@H]2C(=O)N[C@H]1CCCCCB(O)O
- IC50 (Histone deacetylase 1 [10]): 12 µM
- IC50 (Histone deacetylase 4 [11]): 9.4 µM
- IC50 [9]: > 100 µM

SMILES: CCCN(Cc1ccc(C(=O)NO)cc1)C(=O)c1cc2c([nH]c3ccccc32)c(-c2ccc(OC)cc2)n1
- IC50 (Histone deacetylase): 0.26 µM

SMILES: O=C(CCCCCn1cc(-c2ccccc2)nn1)NO
- histone acetylation relative to SAHA [7]: 48%
- IC50 (HCT-116): 9370 nM
- IC50 (A549): 12.5 µM
- IC50 (K562): 8350 nM

Next, values leading:

- IC50 (Histone deacetylase 1 [1]): 64.7 nM
- IC50 [2]: 12.1 nM
SMILES: CC(C)CCc1c(OCCCOc2cccc(/C=C/C(=O)NO)c2)ccc2c1OC(=O)CC2

- IC50 [9]: 0.28 µM
SMILES: O=C(CCCCC[C@@H]1NC(=O)[C@H]2CCCN2C(=O)[C@@H]2CCCCCCCCCCC[C@@H](NC1=O)C(=O)N2)NO

- IC50 (Histone deacetylase 1 [6]): 780 nM
SMILES: CN(Cc1c(C(C)(C)C)nc2cc(/C=C/C(=O)NO)ccn12)CC(C)(C)C

- IC50 (Histone deacetylase 1 [10]): 0.027 µM
- IC50 (Histone deacetylase 4 [11]): 0.026 µM
- IC50 [9]: > 100 µM
SMILES: COCC(=O)CCCCC[C@@H]1NC(=O)[C@H]2CCCN2C(=O)[C@@H]2CCCCCCCCCCC[C@@H](NC1=O)C(=O)N2

- IC50 [8]: 0.22 µmol/L
- IC50 (Histone deacetylase 3): 260 nM
- IC50 [3]: 380 nM
SMILES: COc1cc(/C=C/C(=O)NO)ccc1OCCCCN(C)C(=O)c1ccccc1O

- IC50 [3]: 7.5 nM
- IC50 (Histone deacetylase 1 [4]): 8.2 nM
- IC50 (Histone deacetylase 4 [5]): 3.4 nM
SMILES: O=C(NC(CCCCCSSCCCCCC(NC(=O)OCc1ccccc1)C(=O)Nc1cccc2cccnc12)C(=O)Nc1cccc2cccnc12)OCc1ccccc1 (stereo not drawn)

- IC50 (Histone deacetylase 1 [1]): 66.8 nM
- IC50 [2]: 6.31 nM
SMILES: CC(C)CCc1c(OCCOc2cccc(/C=C/C(=O)NO)c2)ccc2c1OC(=O)CC2

- IC50 (Histone deacetylase): 0.12 µM
SMILES: CCN(CC)CCN(Cc1ccc(C(=O)NO)cc1)C(=O)c1cc2c([nH]c3ccccc32)c(-c2ccc(OC)cc2)n1

- IC50 [8]: 0.18 µmol/L
- IC50 (Histone deacetylase 3): 290 nM
- IC50 [3]: 350 nM
SMILES: COc1cc(/C=C/C(=O)NO)ccc1OCCCN(C)C(=O)c1ccccc1O

- IC50 (Histone deacetylase): 0.092 µM
SMILES: COc1ccc(-c2nc(C(=O)N(CCN(C)C)Cc3ccc(C(=O)NO)cc3)cc3c2[nH]c2ccccc23)cc1

- IC50 [8]: 0.37 µmol/L
- IC50 (Histone deacetylase 3): 680 nM
- IC50 [3]: 550 nM
SMILES: COc1cc(/C=C/C(=O)NO)ccc1OCCCNC(=O)c1ccccc1O
